Results: patent publication US5665769A, “Pharmaceutical composition for preventing and treating retinal diseases” (Senju Pharmaceuticals Co., Ltd., priority 1993, dated 1997)

Legend:
[1] = test system: retina (ERG in rats); assay: ERG in rats after light exposure for 3 days (Experiment 2 (B-2), Method 1); assay type: in vivo; settings: 5.0% suspension, oral 200 mg/kg/day on day of light exposure, 100 mg/kg/day other days; light 3 days
Procedure: FIG. 4 is a graph showing the b-wave amplitude of ERG in rats after light exposure for 3 days in Experiment 2 (B-2)(Method 1). The abscissa indicates time (day) after light exposure and the ordinate indicates b-wave amplitude (mv).
(B-2) Evaluation by ERG determination
Rats were subjected to dark adaptation for 24 hours. Continuous light exposure for 20 hours was repeated for 3 successive days using a green fluorescent lamp (490-580 nm), the illumination intensity of which was adjusted to 600 to 700 lux. ERG was measured for 3 successive days after dark adaptation for 2 hours after completion of everyday light exposure. After that, the rats were reared in a dark room, and ERG was measured on the 7th day after the light exposure, and evaluated for the amplitude of a-wave and b-wave and the latency of a-wave. From the day before the light exposure, a 5.0% 2-O-octadecylascorbic acid suspension or 5.0% gum arabic solution (control) was orally administered twice a day (200 mg/kg/day) on the day of the light exposure and once a day (100 mg/kg/day) on other days.

[2] = test system: bovine retinal homogenate; assay: Ferrous chloride-induced peroxidation of bovine retinal homogenate in vitro, TBA value (Experiment 1 (A)); assay type: biochemical; settings: 10^-4 M
Procedure: (A) In vitro experiment using a bovine retinal homogenate:
Effects of 2-O-octadecylascorbic acid on the peroxidation induced by adding ferrous chloride to a bovine retinal homogenate were examined.
(1) Retinae were removed from bovine eyeballs (1/2 eye). Physiological saline was added to the retinae to prepare bovine retinal homogenates.
(2) Ferrous chloride (0.5 mM, dissolved in distilled water) was added to each of the retinal homogenates obtained in the above. Further, 2-O-octadecylascorbic acid and α-tocopherol were added to the resulting homogenates to final concentrations of the reaction mixtures of 10^-4 M, respectively. Further, distilled water was added to each of the homogenates to adjust a total volume to 1 ml. 2-O-octadecylascorbic acid and α-tocopherol were dissolved and diluted with ethanol. Thus, the final concentrations of ethanol in all of the reaction mixtures were adjusted to 1%. Then, the mixtures were subjected to reaction at 37° C. for 1 hour.
(3) 0.35% thiobarbituric acid (hereinafter referred to as TBA) reagent (50% aqueous acetic acid solution)(1 ml) was added to the reaction mixtures or standard solutions of the retinal homogenates obtained in the above (2). The mixtures were subjected to reaction in boiling water at 100° C. for 1 hour. After water cooling, n-butanol (2 ml) was added, and the mixtures were shaken for 5 minutes and centrifuged at 3000 rpm for 10 minutes. Fluorescence intensities (excitation wave length: 515 nm, emission wave length: 553 nm) were determined for the n-butanol layer. Proteins were determined using Bio-Rad Protein Assay Kit (trade name).

[3] = test system: retina (ERG in rats); assay: ERG in rats after light exposure for 20 hours (Experiment 2 (B-2), Method 2); assay type: in vivo; settings: 5.0% suspension, light 20 hours
Procedure: FIG. 5 is a graph showing the a-wave latency of ERG in rats after light exposure for 20 hours in Experiment 2 (B-2)(Method 2). The abscissa indicates time (day) after light exposure and the ordinate indicates a-wave latency (msec).
(B-2) Evaluation of ERG determination
Rats were subjected to dark adaptation for 12 hours and irradiated with light for 20 successive hours under the same conditions as those of (Method-1). After subjecting them to dark adaptation for 2 hours, ERG was determined. A 5.0% 2-O-octadecylascorbic acid suspension or 5.0% gum arabic solution (control) was orally administered once a day (100 mg/kg/day) from 7 days before the light exposure and twice a day (200 mg/kg/day) only on the day of the light exposure.

[4] = test system: bovine retinal homogenates; assay: Peroxidation of bovine retinal homogenate by light exposure in presence of hematoporphyrin, TBA value (Experiment 2 (A)); assay type: biochemical; settings: 10^-4 M
Procedure: (A) In vitro experiment using bovine retinal homogenates
Antioxidative effects of 2-O-octadecylascorbic acid on peroxidation caused by light exposure of bovine retinal homogenates in the presence of hematoporphyrin (hereinafter referred to as HPP) were examined.
(1) HPP (100 μM, dissolved in ethanol), 2-O-octadecylascorbic acid (10^-4 M) and water were added to a retinal homogenate prepared by the same manner as that of the above Experiment 1 (A) Method (1). The mixture was irradiated with a fluorescent lamp (daylight lamp, 15 W, 3000 lux) from 20 cm above for 1 hour. The final concentration of ethanol in the reaction mixture was adjusted to 2%.
(2) One hour after the light exposure, according to the same manner as that of the above Experiment 1 (A) Method (3), lipidperoxides were determined by the TBA reaction and proteins were determined using Bio-Rad Protein Assay Kit (trade name).

With `CCCCCCCCCCCCCCCCCCOC1=C(O)[C@@H]([C@@H](O)CO)OC1=O` [2-O-octadecylascorbic acid] the “decrease of the b-wave amplitude” value [1] was “the tendency to inhibit the decrease of the b-wave amplitude was observed”, the “inhibitory effect on the peroxidation of the retinal homogenate” value ([2]; compared with α-tocopherol) was “more excellent inhibitory effect on the peroxidation of the retinal homogenate than that in the presence of α-tocopherol” and the “Retina: TBA value” ([2]; 0.5 mM ferrous chloride, 37° C., 1 hour, mean ± S.D., n=3, p < 0.001 vs control) was 0.61 ± 0.04 nM malondialdehyde/mg protein. For the same molecule, the Inhibitory ratio ([2]; ferrous chloride control = 0, blank = 100, 60 min) was 94.9%, the “delay of the a-wave latency” value ([3]; oral 100 mg/kg/day from 7 days before, 200 mg/kg/day on day of light exposure) was “significantly inhibited the delay of the a-wave latency” and the “amplitude of a-wave and b-wave” value ([3]; both groups) was “decreased in both groups”. The “inhibitory effect on light-induced peroxidation” value [4] was “significant inhibitory effect was observed” and the “Retina: TBA value” ([4]; HPP 100 μM, light 3000 lux 1 hour, mean ± S.D., n=3, p < 0.001 vs control) was 1.31 ± 0.21 nM malondialdehyde/mg protein.
